Results reported in ChEMBL document CHEMBL6153034, “Synthesis of dolutegravir derivatives modified by 1,2,3-triazole structure and their anti-inflammatory activity in LPS-induced BV2 cells” (Bioorg Med Chem Lett, 2025).

Experiments:
[1] = Cytotoxicity against mouse BV-2 cells assessed as cell viability at 10 uM by MTT assay relative to control; assay type: toxicity, cell-based; conditions: read-out: Activity
[2] = test system: BV-2; assay: Antiinflammatory activity in LPS induced mouse BV-2 cells assessed as NO production at 10 uM by Griess reagent based assay relative to control
[3] = test system: BV-2; assay: Antiinflammatory activity in LPS induced mouse BV-2 cells assessed as NO production at 1 uM by Griess reagent based assay relative to control
[4] = Cytotoxicity against mouse BV-2 cells assessed as cell viability at 1 uM by MTT assay relative to control; assay type: toxicity, cell-based; conditions: read-out: Activity

Structure (SMILES) | viability at 10 µM [1] | level, % of control at 10 µM [2] | level, % of control at 1 µM [3] | viability at 1 µM [4]
COc1c2n(cc(C(=O)Nc3cccc(-c4cn(-c5ccc(C(F)(F)F)cc5)nn4)c3)c1=O)C[C@H]1OC[C@H](C)N1C2=O | 63.3% | 101% | 102% | 108%
COc1c2n(cc(C(=O)Nc3cccc(-c4cn(-c5cc(C(F)(F)F)ccc5C(F)(F)F)nn4)c3)c1=O)C[C@@H]1OCC[C@@H](C)N1C2=O | 42% | 43.6% | 80.8% | 104%
COc1c2n(cc(C(=O)Nc3ccccc3-c3cn(-c4ccccc4I)nn3)c1=O)C[C@@H]1OCC[C@@H](C)N1C2=O | 65.8% | 56.3% | 107% | 96.7%
COc1c2n(cc(C(=O)Nc3cccc(-c4cn(-c5ccccc5)nn4)c3)c1=O)C[C@H]1OC[C@H](C)N1C2=O | 65.6% | 132% | 127% | 111%
CCc1ccccc1-n1cc(-c2ccccc2NC(=O)c2cn3c(c(OC)c2=O)C(=O)N2[C@H](C)CCO[C@H]2C3)nn1 | 94.7% | 76.3% | 86.7% | 111%
COc1ccccc1-n1cc(-c2cccc(NC(=O)c3cn4c(c(OC)c3=O)C(=O)N3[C@@H](C)CO[C@@H]3C4)c2)nn1 | 50.4% | 68% | 96.5% | 94.1%
COc1ccccc1-n1cc(-c2ccccc2NC(=O)c2cn3c(c(OC)c2=O)C(=O)N2[C@H](C)CCO[C@H]2C3)nn1 | 93.5% | 70.3% | 87.1% | 102%
COc1c2n(cc(C(=O)Nc3cccc(-c4cn(-c5ccccc5F)nn4)c3)c1=O)C[C@H]1OC[C@H](C)N1C2=O | 63.8% | 88.7% | 97.9% | 91.9%
COc1c2n(cc(C(=O)Nc3ccc(-c4cn(-c5ccc(C(F)(F)F)cc5)nn4)cc3)c1=O)C[C@@H]1OCC[C@@H](C)N1C2=O | 45.2% | 76.2% | 77.9% | 53.1%
C[C@@H]1CCO[C@H]2Cn3cc(C(=O)NCc4ccc(F)cc4F)c(=O)c(O)c3C(=O)N12 [DOLUTEGRAVIR] | 77.6% | 51.2% | 96% | 97.5%
COc1c2n(cc(C(=O)Nc3cccc(-c4cn(-c5ccccc5C(F)(F)F)nn4)c3)c1=O)C[C@@H]1OCC[C@@H](C)N1C2=O | 22.8% | 3.88% | 91.5% | 60.6%
COc1c2n(cc(C(=O)Nc3cccc(-c4cn(-c5cccc(C(F)(F)F)c5)nn4)c3)c1=O)C[C@H]1OC[C@H](C)N1C2=O | 43.6% | 78.4% | 104% | 90.7%
COc1c2n(cc(C(=O)Nc3ccccc3-c3cn(-c4c(C)cc(C)cc4C)nn3)c1=O)C[C@@H]1OCC[C@@H](C)N1C2=O | 113% | 59.1% | 81.4% | 107%
COc1c2n(cc(C(=O)Nc3ccc(-c4cn(-c5ccccc5I)nn4)cc3)c1=O)C[C@@H]1OCC[C@@H](C)N1C2=O | 98.2% | 106% | 98.2% | 110%
C[C@@H]1C[C@H]2[C@@H]3CCC4=CC(=O)C=C[C@]4(C)[C@@]3(F)[C@@H](O)C[C@]2(C)[C@@]1(O)C(=O)CO [DEXAMETHASONE] | – | 65% | – | –
COc1c2n(cc(C(=O)Nc3ccccc3-c3cn(-c4ccccc4Cl)nn3)c1=O)C[C@@H]1OCC[C@@H](C)N1C2=O | 98.3% | 65.9% | 92.4% | 97.9%
